Measurements: patent US8119644B2, “Thiadiazole-substituted arylamides as P2X3 and P2X2/3 antagonists” (Roche Palo Alto LLP, priority 2008, dated 2012)

How the values were obtained:
[1] = target: T1, human P2X2/3 receptor (Homo sapiens, UniProt P56373+Q9UBL9); assay: P2X2/3 FLIPR (Fluorometric Imaging Plate Reader) assay, CHO-K1 cells; format: cell-based; settings: CHO-K1 cells transfected with human P2X2/3; agonist α,β-meATP 5 μM; Fluo-3 calcium fluorescence; read-out: P2X2/3 (pKi) (converted)
T1 construct: expressed in transfected cells; host or cells: CHO-K1
T1 sequence (Q9UBL9 1-471): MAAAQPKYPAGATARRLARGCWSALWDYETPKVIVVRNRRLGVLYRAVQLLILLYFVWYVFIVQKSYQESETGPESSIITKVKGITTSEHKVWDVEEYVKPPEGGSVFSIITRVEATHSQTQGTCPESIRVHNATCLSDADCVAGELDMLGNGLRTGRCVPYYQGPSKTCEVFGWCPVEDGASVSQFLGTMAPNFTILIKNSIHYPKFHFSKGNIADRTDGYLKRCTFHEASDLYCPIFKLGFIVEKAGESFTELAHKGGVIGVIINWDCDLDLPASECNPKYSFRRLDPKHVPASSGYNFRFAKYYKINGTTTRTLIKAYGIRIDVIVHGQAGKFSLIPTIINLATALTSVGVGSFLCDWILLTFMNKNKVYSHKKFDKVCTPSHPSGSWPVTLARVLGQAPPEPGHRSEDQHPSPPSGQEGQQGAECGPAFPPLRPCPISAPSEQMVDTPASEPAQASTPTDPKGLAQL
T1 sequence (P56373 1-397): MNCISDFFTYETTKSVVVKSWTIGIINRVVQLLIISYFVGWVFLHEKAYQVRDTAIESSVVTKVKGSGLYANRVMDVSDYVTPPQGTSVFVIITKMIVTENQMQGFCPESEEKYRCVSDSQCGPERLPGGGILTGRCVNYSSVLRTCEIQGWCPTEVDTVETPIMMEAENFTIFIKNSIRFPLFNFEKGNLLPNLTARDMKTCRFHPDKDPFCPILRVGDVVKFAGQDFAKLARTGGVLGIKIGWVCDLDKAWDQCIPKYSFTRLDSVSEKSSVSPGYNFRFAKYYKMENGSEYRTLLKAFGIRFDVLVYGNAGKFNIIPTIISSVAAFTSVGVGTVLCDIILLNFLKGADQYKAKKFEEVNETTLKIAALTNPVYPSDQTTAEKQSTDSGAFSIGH
Method: (§1) P2X3/P2X2/3 FLIPR (Fluorometric Imaging Plate Reader) Assay
(§2) CHO-K1 cells were transfected with cloned rat P2X3 or human P2X2/3 receptor subunits and passaged in flasks. 18-24 hours before the FLIPR experiment, cells were released from their flasks, centrifuged, and resuspended in nutrient medium at 2.5×10^5 cells/ml. The cells were aliquoted into black-walled 96-well plates at a density of 50,000 cells/well and incubated overnight in 5% CO2 at 37° C. On the day of the experiment, cells were washed in FLIPR buffer (calcium- and magnesium-free Hank's balanced salt solution, 10 mM HEPES, 2 mM CaCl2, 2.5 mM probenecid; FB). Each well received 100 μl FB and 100 μl of the fluorescent dye Fluo-3 AM [2 μM final conc.]. After a 1 hour dye loading incubation at 37° C., the cells were washed 4 times with FB, and a final 75 μl/well FB was left in each well.
(§3) Test compounds (dissolved in DMSO at 10 mM and serially diluted with FB) or vehicle were added to each well (25 μl of a 4× solution) and allowed to equilibrate for 20 minutes at room temperature. The plates were then placed in the FLIPR and a baseline fluorescence measurement (excitation at 488 nm and emission at 510-570 nm) was obtained for 10 seconds before a 100 μl/well agonist or vehicle addition. The agonist was a 2× solution of α,β-meATP producing a final concentration of 1 μM (P2X3) or 5 μM (P2X2/3). Fluorescence was measured for an additional 2 minutes at 1 second intervals after agonist addition. A final addition of ionomycin (5 μM, final concentration) was made to each well of the FLIPR test plate to establish cell viability and maximum fluorescence of dye-bound cytosolic calcium. Peak fluorescence in response to the addition of α,β-meATP (in the absence and presence of test compounds) was measured and inhibition curves generated using nonlinear regression. PPADS, a standard P2X antagonist, was used as a positive control.

[2] = target: T2, rat P2X3 receptor (Rattus norvegicus, UniProt P49654); assay: P2X3 FLIPR (Fluorometric Imaging Plate Reader) assay, CHO-K1 cells; format: cell-based; settings: CHO-K1 cells transfected with cloned rat P2X3; agonist α,β-meATP 1 μM; Fluo-3 calcium fluorescence; read-out: P2X3 (pKi) (converted)
T2 construct: expressed in transfected cells; host or cells: CHO-K1
T2 sequence (P49654 1-397): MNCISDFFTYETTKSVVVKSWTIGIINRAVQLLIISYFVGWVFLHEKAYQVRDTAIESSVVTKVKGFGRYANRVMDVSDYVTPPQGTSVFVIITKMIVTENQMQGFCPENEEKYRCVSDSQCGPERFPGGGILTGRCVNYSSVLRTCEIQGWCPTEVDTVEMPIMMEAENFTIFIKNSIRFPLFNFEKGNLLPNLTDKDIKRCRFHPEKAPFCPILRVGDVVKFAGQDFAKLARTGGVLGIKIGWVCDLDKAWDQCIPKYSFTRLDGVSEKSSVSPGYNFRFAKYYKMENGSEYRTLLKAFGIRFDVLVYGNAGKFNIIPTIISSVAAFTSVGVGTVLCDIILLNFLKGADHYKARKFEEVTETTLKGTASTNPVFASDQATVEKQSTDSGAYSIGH
Method: as §1, §2, §3

Ki [1] [nM]	Ki [2] [nM]	Compound
37.2	9.12	Cc1ccc(-c2cc(C(=O)NCc3cnc(C)cn3)cc(-c3snnc3C(C)C)c2)nc1 [Compound 3, 3-(4-Isopropyl-[1,2,3]thiadiazol-5-yl)-N-(5-methyl-pyrazin-2-ylmethyl)-5-(5-methyl-pyridin-2-yl)-benzamide]
33.9	8.91	Cc1ccc(-c2cc(C(=O)NCc3cnc(C)nc3)cc(-c3snnc3C(C)C)c2)nc1 [Compound 5, 3-(4-Isopropyl-[1,2,3]thiadiazol-5-yl)-5-(5-methyl-pyridin-2-yl)-N-(2-methyl-pyrimidin-5-ylmethyl)-benzamide]
105	16.6	Cc1ccc(-c2cc(C(=O)NCc3ncc(C)cn3)cc(-c3snnc3C(C)C)c2)nc1 [Compound 6, 3-(4-Isopropyl-[1,2,3]thiadiazol-5-yl)-5-(5-methyl-pyridin-2-yl)-N-(5-methyl-pyrimidin-2-ylmethyl)-benzamide]

Continued, molecule first:

Compound	Ki [1] [nM]	Ki [2] [nM]
Cc1ccc(-c2cc(C(=O)N[C@H](C)CO)cc(-c3nsnc3C(C)C)c2)nc1 [Compound 1, N-((R)-2-Hydroxy-1-methyl-ethyl)-3-(4-isopropyl-[1,2,5]thiadiazol-3-yl)-5-(5-methyl-pyridin-2-yl)-benzamide]	72.4	6.92
COCC(C)NC(=O)c1cc(-c2ccc(C)cc2)cc(-c2csnn2)c1 (stereo not shown) [Compound 2, 4′-Methyl-5-[1,2,3]thiadiazol-4-yl-biphenyl-3-carboxylic acid (2-methoxy-1-methyl-ethyl)-amide]	–	4680
Cc1ccc(-c2cc(C(=O)N[C@H](C)CO)cc(-c3snnc3C(C)C)c2)nc1 [Compound 4, N-((R)-2-Hydroxy-1-methyl-ethyl)-3-(4-isopropyl-[1,2,3]thiadiazol-5-yl)-5-(5-methyl-pyridin-2-yl)-benzamide]	214	4.27
Cc1ccc(-c2cc(C(=O)NCc3cnc(C)cn3)cc(-c3nsnc3C(C)C)c2)nc1 [Compound 7, 3-(4-Isopropyl-[1,2,5]thiadiazol-3-yl)-N-(5-methyl-pyrazin-2-ylmethyl)-5-(5-methyl-pyridin-2-yl)-benzamide]	43.7	18.2
